Laboratory results: patent US20260035360A1, “INHIBITORS OF MYC AND USES THEREOF” (Northwestern University, priority 2022, published 2026)

Tests used:
[1] = female, mouse, in vivo, po, 1 mg/kg
Procedure: (§3) PK: Plasma levels of compounds were determined after 1 mg/kg dosing PO in female BALB/C mice.
(§4) Plasma levels of compounds were determined after 1 mg/kg dosing PO in female BALB/C mice.

MYC = target: T1, MYC (Homo sapiens, UniProt P01106); experiment: MYC protein level in PC3 cells by western blot, 24 hr; assay type: cell-based; conditions: PC-3, 24 h, PC3, 24 h, Actin control, read-out: Relative MYC protein at 10 μM (%, PC3 24 h)
T1 construct: endogenous in cells; host or cells: PC3 cells
T1 sequence (P01106 whole entry): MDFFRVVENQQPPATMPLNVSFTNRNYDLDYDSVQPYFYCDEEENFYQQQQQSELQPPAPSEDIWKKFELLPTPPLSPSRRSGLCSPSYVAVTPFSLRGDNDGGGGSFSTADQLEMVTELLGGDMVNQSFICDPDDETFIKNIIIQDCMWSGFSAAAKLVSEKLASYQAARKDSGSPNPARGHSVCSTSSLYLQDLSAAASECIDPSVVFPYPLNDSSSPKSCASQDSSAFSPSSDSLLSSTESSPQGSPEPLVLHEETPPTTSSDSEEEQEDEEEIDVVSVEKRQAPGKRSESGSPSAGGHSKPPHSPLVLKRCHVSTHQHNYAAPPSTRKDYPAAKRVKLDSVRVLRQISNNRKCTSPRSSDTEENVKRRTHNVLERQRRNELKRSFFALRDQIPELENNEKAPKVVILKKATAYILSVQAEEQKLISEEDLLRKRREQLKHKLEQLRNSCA
Procedure: (§1) Table 2. Biological data of selected compounds. For IC50 determination. PC3 and PC12 cells were treated with increasing concentrations of the indicated compounds for 72 hrs and cell viability assessed using CellTitreGlo Assay (Promega). For MYC and ATF4 protein level determination. PC3 cells were treated with the indicated compounds for 24 hr sand cell lysates processed for western blot with MYC and ATF4 antibodies using Actin as a control. Quantification analyses were performed by Biorad ChemiDoc Imager and Bio-Rad Image Lab software.

PC3 cells = experiment: PC3 cell viability, CellTitreGlo Assay, 72 hrs; assay type: cell-based; conditions: Homo sapiens, PC-3
Procedure: as §1

ATF4 = ATF4 protein level in PC3 cells by western blot, 24 hr; assay type: cell-based; conditions: Homo sapiens, PC-3, PC3, 24 h, Actin control, read-out: Relative ATF4 protein at 10 μM (fold change, PC3 24 h)
Procedure: as §1

[2] = Plasma pharmacokinetics after 1 mg/kg PO in female mice; conditions: mouse; for half-life: female mice
Procedure: as §3, §4

MycCaP;Pten-KO cells = experiment: Tumor growth inhibition, MycCaP;Pten-KO subcutaneous allograft in male FVB/N mice; assay type: in vivo; conditions: after 14 d; for TGI: QD, Table 7; for Efficacy MycCaP;Pten-ko (TGI @ 100 mg/kg/d po): male FVB/N mice, Table 3
Procedure: (§2) Table 3. Biological data of selected compounds. […] Tumor growth inhibition (TGI) was determined after 14 d.
Table 7. Tumor Growth Inhibition data. […] Tumor growth inhibition (TOD was determined after 14 d.

PC12 cells = experiment: PC12 cell viability, CellTitreGlo Assay, 72 hrs; assay type: cell-based; conditions: for IC50: Rattus norvegicus, PC-12
Procedure: as §1

[3] = Toxicity (weight loss) in tumor-bearing mice; assay type: in vivo; conditions: weight loss class
Procedure: as §2

`Cn1nc(C(F)(F)F)c(Cl)c1-c1ccc(COc2ccc(Cl)cc2)c(-c2ccc(Cl)c(C(F)(F)F)c2)c1O` [NUCC-0226606] showed an AUMC0-t [1] of 177148 h*h*ng/mL, a remaining activity at 10 µM (MYC) of 38.2 ± 3.9% and an IC50 (PC3 cells) of 2.23 µM. It also gave a fold induction at 10 µM (ATF4) of 9.7 ± 1.2, an AUC(0-t) [2] of 15200 ng·h/mL and a Cmax [2] of 841 ng/mL. The Tmax [2] was 12 h, the TGI (MycCaP;Pten-KO cells; 10 mg/kg p.o.) was 43.1% and the TGI (MycCaP;Pten-KO cells; 30 mg/kg p.o.) was 56.4%. For the same compound, the TGI (MycCaP;Pten-KO cells; 100 mg/kg p.o.) was 74.6%, the “Efficacy MycCaP;Pten-ko (TGI @ 100 mg/kg/d po)” value (shortened to “Efficacy MycCaP;Pten-ko”) (MycCaP;Pten-KO cells) was 75 and the IC50 (PC12 cells) was 16.6 µM.

With `Cn1nc(C(F)(F)F)cc1-c1cc(C(F)(F)F)c(COc2ccc(Cl)cc2)c(-c2ccc(Cl)c(C(F)(F)F)c2)c1O` [NUCC-0227244] the “Toxicity @ 100 mg/kg/d” value [3] was “++ (++, 15-20% weight loss)”, the remaining activity at 10 µM (MYC) was 39.5% and the IC50 (PC3 cells) was 0.57 µM. The fold induction at 10 µM (ATF4) was 22.8 and the IC50 (PC12 cells) was 4.55 µM.

In the case of `Cn1nc(C(F)(F)F)cc1-c1ccc(COc2ccc(Cl)cc2)c(-c2ccc(Cl)c(C(F)(F)F)c2)c1O` [NUCC-0202416], the AUMC0-t [1] is reported as 88636 h*h*ng/mL, the remaining activity at 10 µM (MYC) is reported as 38.9% and the IC50 (PC3 cells) is reported as 4.71 µM. The fold induction at 10 µM (ATF4) was 9.3, the AUC(0-t) [2] was 5760 ng·h/mL and the Cmax [2] was 244 ng/mL. For the same compound, the Tmax [2] was 8 h and the “PC12 IC50” value (PC12 cells) was “inactive”.

With `Cn1nc(C(F)(F)F)cc1-c1cc(Cl)c(Oc2ccc(Cl)cc2)c(-c2ccc(Cl)c(C(F)(F)F)c2)c1O` [NUCC-0227245] the “Toxicity @ 100 mg/kg/d” value [3] was “+++ (+++, >20% weight loss or death)”, the remaining activity at 10 µM (MYC) was 37.1 ± 1% and the IC50 (PC3 cells) was 0.49 µM. It also gave a fold induction at 10 µM (ATF4) of 20.3 ± 3.7 and an IC50 (PC12 cells) of 3.81 µM.

For `Cn1nc(C(F)(F)F)cc1-c1ccc(OCc2ccc(Cl)cc2)c(-c2ccc(Cl)c(C(F)(F)F)c2)c1O` [MYCi975, reference compound], the “Toxicity @ 100 mg/kg/d” value [3] was “− (−, 0-5% weight loss)”, the IC50 (PC3 cells) was 2.9 ± 0.5 µM and the “Efficacy MycCaP;Pten-ko” value (MycCaP;Pten-KO cells) was 50. For the same compound, the IC50 (PC12 cells) was > 16 µM.

With `Cn1nc(C(F)(F)F)c(Cl)c1-c1cc(Cl)c(COc2ccc(Cl)cc2)c(-c2ccc(Cl)c(C(F)(F)F)c2)c1O` [NUCC-0227037] the AUMC0-t [1] was 53530 h*h*ng/mL, the “AUMC0-∞” value [1] was 66373 h*h*ng/mL and the remaining activity at 10 µM (MYC) was 33.6%. It also gave an IC50 (PC3 cells) of 0.96 µM, a fold induction at 10 µM (ATF4) of 15.1 and an AUC(0-inf) [2] of 4200 ng·h/mL. It also gave an AUC(0-t) [2] of 4000 ng·h/mL, a Cmax [2] of 202 ng/mL and an MRT inf [2] of 15.8 h. It also gave a Tmax [2] of 4 h, a half-life ([2]; T1/2, Table 6, PO 1 mg/kg) of 10.7 h and a half-life ([2]; T1/2—range*, Table 6, PO 1 mg/kg) of 8 to 48 h. It also gave a TGI (MycCaP;Pten-KO cells; 10 mg/kg p.o.) of 43.99%, a TGI (MycCaP;Pten-KO cells; 30 mg/kg p.o.) of 57.24% and a TGI (MycCaP;Pten-KO cells; 100 mg/kg p.o.) of 81.48%. For the same compound, the “Efficacy MycCaP;Pten-ko” value (MycCaP;Pten-KO cells) was 80 and the IC50 (PC12 cells) was 11.1 µM.

For `Cn1nc(C(F)(F)F)cc1-c1cc(Cl)c(COc2ccc(Cl)cc2)c(-c2ccc(Cl)c(C(F)(F)F)c2)c1O` [NUCC-0226605], the “Toxicity @ 100 mg/kg/d” value [3] was “++ (++, 15-20% weight loss)”, the AUMC0-t [1] was 49995 h*h*ng/mL and the remaining activity at 10 µM (MYC) was 34.7 ± 3.2%. For the same compound, the IC50 (PC3 cells) was 1 µM, the fold induction at 10 µM (ATF4) was 10.3 ± 1.5 and the AUC(0-t) [2] was 4830 ng·h/mL. The Cmax [2] was 274 ng/mL, the Tmax [2] was 8 h and the TGI (MycCaP;Pten-KO cells; 10 mg/kg p.o.) was 56.29%. The TGI (MycCaP;Pten-KO cells; 30 mg/kg p.o.) was 65.67%, the TGI (MycCaP;Pten-KO cells; 100 mg/kg p.o.) was 92.51% and the “Efficacy MycCaP;Pten-ko” value (MycCaP;Pten-KO cells) was 90. The IC50 (PC12 cells) was 10.5 µM.

Work on `Cn1nc(C(F)(F)F)cc1-c1c(F)cc(OCc2ccc(Cl)cc2)c(-c2ccc(Cl)c(C(F)(F)F)c2)c1O` [NUCC-0226545] yielded an AUMC0-t [1] of 36107 h*h*ng/mL, a remaining activity at 10 µM (MYC) of 19.5% and an IC50 (PC3 cells) of 2.2 µM. For the same compound, the fold induction at 10 µM (ATF4) was 4.7, the AUC(0-t) [2] was 4760 ng·h/mL and the Cmax [2] was 472 ng/mL. For the same compound, the MRT inf [2] was 7.57 h, the Tmax [2] was 4 h and the half-life ([2]; T1/2, Table 4, PO 1 mg/kg) was 4.3 h. For the same compound, the half-life ([2]; T1/2—range*, Table 4, PO 1 mg/kg) was 8 to 24 h and the IC50 (PC12 cells) was 10.8 µM.

Compound `Cn1nc(C(F)(F)F)cc1-c1ccnc(-c2ccc(Cl)c(C(F)(F)F)c2)c1O` [NUCC-0226595] has a remaining activity at 10 µM (MYC) of 69.8%, an IC50 (PC3 cells) of 0.74 µM and a fold induction at 10 µM (ATF4) of 6.3. It also gave an IC50 (PC12 cells) of 4.03 µM.

Compound `Cn1nc(C(F)(F)F)cc1-c1ccc(-c2ccc(Cl)cc2)c(OCc2ccc(Cl)c(C(F)(F)F)c2)c1O` [NUCC-0226652] has a remaining activity at 10 µM (MYC) of 72.3%, an IC50 (PC3 cells) of 4.42 µM and a fold induction at 10 µM (ATF4) of 5.2. The IC50 (PC12 cells) was 16.6 µM.

In the case of `Cn1nc(C(F)(F)F)cc1-c1cc2c(c(-c3ccc(Cl)c(C(F)(F)F)c3)c1O)CN(Cc1ccc(Cl)cc1)CC2` [NUCC-0227169], the remaining activity at 10 µM (MYC) is reported as 41.8%, the IC50 (PC3 cells) is reported as 3.28 µM and the fold induction at 10 µM (ATF4) is reported as 14.6. For the same compound, the IC50 (PC12 cells) was 8.01 µM.

With `Cn1nc(N)cc1-c1ccc(OCc2ccc(Cl)cc2)c(-c2ccc(Cl)c(C(F)(F)F)c2)c1O` [NUCC-0226915] the remaining activity at 10 µM (MYC) was 86.9%, the IC50 (PC3 cells) was 14.2 µM and the fold induction at 10 µM (ATF4) was 0.95. For the same compound, the IC50 (PC12 cells) was 10.5 µM.
